Values joined by “and” are separate entries in the source; they are usually repeats but may differ in a detail not shown here. Equal entries are not always repeated. ± gives the uncertainty stated by the source.
Assay: xn = mol fraction of the nth substance listed

CCCCC(CC)COP(=O)(O)OCC(CC)CCCC (configuration not stated) + CCCC(=O)O
303.15 K, 101 kPa
Conditions	viscosity [mPa·s]
x1 = 0.0532	1.784 ± 0.084
x1 = 0.1098	2.592 ± 0.12
x1 = 0.1892	3.578 ± 0.16
x1 = 0.2612	4.602 ± 0.2
x1 = 0.3278	5.698 ± 0.24
x1 = 0.4066	7.172 ± 0.29
x1 = 0.5002	8.886 ± 0.35
x1 = 0.6095	11.21 ± 0.43
x1 = 0.6884	12.9 ± 0.48
x1 = 0.7405	14.01 ± 0.52
x1 = 0.8096	15.38 ± 0.57
x1 = 0.8811	16.81 ± 0.62
x1 = 0.9342	17.79 ± 0.66

Nc1ccc(Br)cc1 + [Br-].[Br-].[Br-].[Sb+3]
323.15 K, 101 kPa
Conditions	viscosity [mPa·s]
x2 = 0.25	212.7 ± 5.8
x2 = 0.333	1215 ± 72
x2 = 0.4	12170 ± 360
x2 = 0.45	20000 ± 730
x2 = 0.48	20530 ± 760
x2 = 0.5	20730 ± 760
x2 = 0.52	19960 ± 720
x2 = 0.55	11640 ± 330
x2 = 0.6	4143 ± 110
x2 = 0.75	239.8 ± 7.5

C[N+](=O)[O-] + CCC(C)O
viscosity [mPa·s], 101.33 kPa
Conditions	293.15 K	303.15 K	313.15 K
x2 = 0.05	0.631 ± 0.006	0.562 ± 0.005	0.508 ± 0.005
x2 = 0.1	0.639 ± 0.006	0.564 ± 0.005	0.504 ± 0.005
x2 = 0.15	0.65 ± 0.006	0.571 ± 0.005	0.506 ± 0.005
x2 = 0.2002	0.676 ± 0.006	0.584 ± 0.006	0.515 ± 0.005
x2 = 0.25	0.707 ± 0.007	0.605 ± 0.006	0.528 ± 0.005
x2 = 0.3	0.751 ± 0.007	0.633 ± 0.006	0.546 ± 0.005
x2 = 0.35	0.805 ± 0.007	0.666 ± 0.006	0.574 ± 0.005
x2 = 0.4	0.864 ± 0.008	0.705 ± 0.007	0.595 ± 0.006
x2 = 0.45	0.931 ± 0.009	0.751 ± 0.007	0.625 ± 0.006
x2 = 0.5	0.995 ± 0.009	0.798 ± 0.007	0.659 ± 0.006
x2 = 0.5502	1.081 ± 0.01	0.854 ± 0.008	0.7 ± 0.007
x2 = 0.6	1.169 ± 0.011	0.916 ± 0.008	0.743 ± 0.007
x2 = 0.6499	1.275 ± 0.012	0.991 ± 0.009	0.796 ± 0.007
x2 = 0.7	1.4 ± 0.013	1.079 ± 0.01	0.857 ± 0.008
x2 = 0.75	1.547 ± 0.014	1.187 ± 0.011	0.933 ± 0.009
x2 = 0.8	1.742 ± 0.016	1.316 ± 0.012	1.03 ± 0.009
x2 = 0.85	1.995 ± 0.018	1.5 ± 0.013	1.14 ± 0.01
x2 = 0.9001	2.341 ± 0.021	1.703 ± 0.015	1.283 ± 0.012
x2 = 0.95	2.845 ± 0.025	2.02 ± 0.018	1.477 ± 0.013

[Na+].[Na+].[O]=[Cr](=[O])([O-])[O-] + O
viscosity, 101 kPa
Conditions	x1 = 0.012	x1 = 0.02109	x1 = 0.027	x1 = 0.045	x1 = 0.069	x1 = 0.083
298.15 K	1.16 ± 0.02 mPa·s	1.38 ± 0.023 mPa·s	1.68 ± 0.02 mPa·s	2.88 ± 0.04 mPa·s	6.14 ± 0.09 mPa·s	10.03 ± 0.13 mPa·s
312.95 K	0.85 ± 0.01 mPa·s and 0.8523 ± 0.023 mPa·s	–	1.23 ± 0.02 mPa·s	1.98 ± 0.03 mPa·s	3.9 ± 0.05 mPa·s	5.94 ± 0.08 mPa·s

ClC1CCCCC1 + C1CCCCC1
viscosity [mPa·s], 101.3 kPa
Conditions	x2 = 0.095	x2 = 0.2004	x2 = 0.2999	x2 = 0.3989	x2 = 0.4989	x2 = 0.5993	x2 = 0.6986	x2 = 0.8004	x2 = 0.9006
298.15 K	1.485 ± 0.014	1.394 ± 0.013	1.315 ± 0.012	1.241 ± 0.011	1.172 ± 0.01	1.106 ± 0.0096	1.046 ± 0.009	0.9893 ± 0.0085	0.9379 ± 0.008
313.15 K	1.153 ± 0.011	1.086 ± 0.01	1.025 ± 0.0097	0.9696 ± 0.0091	0.9164 ± 0.0085	0.8667 ± 0.008	0.821 ± 0.0075	0.7771 ± 0.0071	0.7392 ± 0.0067

CCCCC(CC)COP(=O)(O)OCC(CC)CCCC (configuration not stated) + Clc1ccccc1
viscosity [mPa·s], 101 kPa
Conditions	x1 = 0.0374	x1 = 0.0804	x1 = 0.1303	x1 = 0.1888	x1 = 0.2587	x1 = 0.3436	x1 = 0.4481	x1 = 0.5826	x1 = 0.7584
303.15 K	0.8898 ± 0.036	1.127 ± 0.046	1.45 ± 0.059	1.903 ± 0.077	2.556 ± 0.1	3.531 ± 0.14	5.039 ± 0.2	7.539 ± 0.3	11.9 ± 0.48
313.15 K	0.766 ± 0.031	0.9413 ± 0.038	1.176 ± 0.048	1.498 ± 0.06	1.953 ± 0.079	2.619 ± 0.11	3.629 ± 0.15	5.271 ± 0.21	8.078 ± 0.33
323.15 K	0.6693 ± 0.027	0.7965 ± 0.032	0.9633 ± 0.039	1.187 ± 0.048	1.497 ± 0.06	1.939 ± 0.078	2.595 ± 0.11	3.637 ± 0.15	5.374 ± 0.22

C[N+](=O)[O-] + CO
viscosity [mPa·s]
Conditions	293.15 K	298.15 K	303.15 K	313.15 K
101 kPa, x1 = 0.0771	–	0.5277 ± 0.053	–	–
101 kPa, x1 = 0.1586	–	0.5151 ± 0.052	–	–
101 kPa, x1 = 0.216	–	0.503 ± 0.005	–	–
101 kPa, x1 = 0.238	–	0.502 ± 0.005	–	–
101 kPa, x1 = 0.24	–	0.501 ± 0.005	–	–
101 kPa, x1 = 0.244	–	0.5 ± 0.005	–	–
101 kPa, x1 = 0.2441	–	0.5082 ± 0.051	–	–
101 kPa, x1 = 0.3345	–	0.5081 ± 0.051	–	–
101 kPa, x1 = 0.4298	–	0.5102 ± 0.051	–	–
101 kPa, x1 = 0.496	–	0.495 ± 0.005	–	–
101 kPa, x1 = 0.5305	–	0.5169 ± 0.052	–	–
101 kPa, x1 = 0.539	–	0.497 ± 0.005	–	–
101 kPa, x1 = 0.579	–	0.5 ± 0.005	–	–
101 kPa, x1 = 0.6375	–	0.5265 ± 0.053	–	–
101 kPa, x1 = 0.7509	–	0.5426 ± 0.055	–	–
101 kPa, x1 = 0.861	–	0.55 ± 0.006	–	–
101 kPa, x1 = 0.863	–	0.55 ± 0.006	–	–
101 kPa, x1 = 0.8715	–	0.5721 ± 0.058	–	–
101 kPa, x1 = 0.875	–	0.554 ± 0.006	–	–
101.33 kPa, x2 = 0.0503	0.617 ± 0.006	–	0.551 ± 0.005	0.493 ± 0.005
101.33 kPa, x2 = 0.1004	0.596 ± 0.006	–	0.528 ± 0.005	0.473 ± 0.005
101.33 kPa, x2 = 0.15	0.575 ± 0.005	–	0.511 ± 0.005	0.458 ± 0.004
101.33 kPa, x2 = 0.2003	0.561 ± 0.005	–	0.498 ± 0.005	0.445 ± 0.004
101.33 kPa, x2 = 0.2501	0.552 ± 0.005	–	0.489 ± 0.005	0.435 ± 0.004
101.33 kPa, x2 = 0.3	0.542 ± 0.005	–	0.479 ± 0.005	0.427 ± 0.004
101.33 kPa, x2 = 0.3502	0.536 ± 0.005	–	0.474 ± 0.005	0.421 ± 0.004
101.33 kPa, x2 = 0.4	0.531 ± 0.005	–	0.469 ± 0.005	0.416 ± 0.004
101.33 kPa, x2 = 0.4501	0.527 ± 0.005	–	0.464 ± 0.005	0.412 ± 0.004
101.33 kPa, x2 = 0.5	0.525 ± 0.005	–	0.461 ± 0.004	0.408 ± 0.004
101.33 kPa, x2 = 0.55	0.524 ± 0.005	–	0.459 ± 0.004	0.406 ± 0.004
101.33 kPa, x2 = 0.6001	0.524 ± 0.005	–	0.459 ± 0.004	0.405 ± 0.004
101.33 kPa, x2 = 0.65	0.525 ± 0.005	–	0.458 ± 0.004	0.405 ± 0.004
101.33 kPa, x2 = 0.7	0.526 ± 0.005	–	0.461 ± 0.004	0.406 ± 0.004
101.33 kPa, x2 = 0.7501	0.53 ± 0.005	–	0.463 ± 0.004	0.409 ± 0.004
101.33 kPa, x2 = 0.8	0.538 ± 0.005	–	0.468 ± 0.005	0.412 ± 0.004
101.33 kPa, x2 = 0.8501	0.545 ± 0.005	–	0.474 ± 0.005	0.417 ± 0.004
101.33 kPa, x2 = 0.9	0.553 ± 0.005	–	0.482 ± 0.005	0.423 ± 0.004
101.33 kPa, x2 = 0.95	0.566 ± 0.005	–	0.491 ± 0.005	0.432 ± 0.004

— the CheMixHub viscosity set
